Measured values published in ChEMBL document CHEMBL4257517, “Elucidation of fluorine's impact on pKa and in vitro Pgp-mediated efflux for a series of PDE9 inhibitors” (Medchemcomm, 2018).

Assays:
[1] = biological target: T1, High affinity cGMP-specific 3',5'-cyclic phosphodiesterase 9A (Homo sapiens, UniProt O76083); assay: Inhibition of PDE9 (unknown origin) using [3H]-cGMP as substrate after 1 hr by scintillation counting method
[2] = biological target: T1, High affinity cGMP-specific 3',5'-cyclic phosphodiesterase 9A; assay: Inhibition of PDE9 (unknown origin) at 10 uM using [3H]-cGMP as substrate after 1 hr by scintillation counting method relative to control
[3] = Acidic dissociation constant, pKa of compound at 10 uM by UV/Vis spectroscopy; assay type: physicochemical
[4] = Basic dissociation constant, pKa of compound at 10 uM by UV/Vis spectroscopy; assay type: physicochemical

T1 sequence (O76083 whole entry): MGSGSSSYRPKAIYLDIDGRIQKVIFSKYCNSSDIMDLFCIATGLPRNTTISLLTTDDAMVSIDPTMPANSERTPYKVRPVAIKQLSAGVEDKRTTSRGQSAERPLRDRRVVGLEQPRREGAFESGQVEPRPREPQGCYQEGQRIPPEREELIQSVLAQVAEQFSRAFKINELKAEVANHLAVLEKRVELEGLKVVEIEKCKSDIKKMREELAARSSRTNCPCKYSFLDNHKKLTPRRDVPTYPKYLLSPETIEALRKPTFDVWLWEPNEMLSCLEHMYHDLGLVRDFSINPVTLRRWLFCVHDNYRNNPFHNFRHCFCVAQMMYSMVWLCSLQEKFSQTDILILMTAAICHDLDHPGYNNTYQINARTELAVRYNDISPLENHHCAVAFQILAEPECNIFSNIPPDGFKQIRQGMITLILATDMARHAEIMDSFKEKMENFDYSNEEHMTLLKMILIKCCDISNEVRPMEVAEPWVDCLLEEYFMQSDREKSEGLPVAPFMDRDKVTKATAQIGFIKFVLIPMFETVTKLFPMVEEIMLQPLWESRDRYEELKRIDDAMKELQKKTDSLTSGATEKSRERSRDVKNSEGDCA

SMILES	IC50 [1] [nM]	inhibition [2] [%]	other results
C[C@@H]1CN(Cc2ccc(F)cc2)C[C@H]1c1nc2c(cnn2C2CCOCC2)c(=O)[nH]1	17		
C[C@@H]1CN(Cc2ncccn2)C[C@@]1(F)c1nc2c(cnn2C2CCOCC2)c(=O)[nH]1			pKa at 10 µM [3]: 8.4; pKa at 10 µM [4]: 5.6
Cc1ncc(CN2C[C@@H](C)[C@](F)(c3nc4c(cnn4C4CCOCC4)c(=O)n3C)C2)cn1		14	
Cc1cnc(CN2C[C@@H](C)[C@H](c3nc4c(cnn4C4CCOCC4)c(=O)[nH]3)C2)cn1	59		
C[C@@H]1CN(Cc2ncccn2)C[C@H]1c1nc2c(cnn2C2CCOCC2)c(=O)[nH]1 [EDELINONTRINE]			pKa at 10 µM [3]: 9.6; pKa at 10 µM [4]: 6.8

Second part, led by results:

IC50 [1] [nM]	inhibition [2] [%]	SMILES	other results
	22	Cc1cnc(CN2C[C@@H](C)[C@](F)(c3nc4c(cnn4C4CCOCC4)c(=O)n3C)C2)cn1	
	66	Cc1cnc(CN2C[C@@H](C)[C@H](c3nc4c(cnn4C4CCOCC4)c(=O)n3C)C2)cn1	
36		Cc1ncc(CN2C[C@@H](C)[C@H](c3nc4c(cnn4C4CCOCC4)c(=O)[nH]3)C2)cn1	
